According to BindingDB's records for patent WO2022104345 (Genentech, 2022):

Target: von Hippel-Lindau disease tumor suppressor (Homo sapiens, UniProt P40337)
Assay: VHL HEK-293 BRET Assay
Procedure: The VHL NanoBRET Target Engagement Assay analyzes the apparent affinity of test compounds for VHL in cells by competitive displacement of a VHL NanoBRET tracer reversibly bound to a NanoLuc VHL fusion protein stably expressed in the cells.[0488] Test compounds were transferred to the assay plate (384 Well White Non-Binding Corning Assay Plates (Corning-3574)) using an Echo 555 Liquid Handler (Labcyte) in 2.5 nL increments and, as appropriate, intermediate stock concentrations of compounds, in order to prepare a titration series.50 nL of control compound (10mM; parental unlabeled VHL antagonist; see structure below) and 50 nL of DMSO (negative control) were dispensed into the appropriate control wells. DMSO was backfilled to a final volume of 50 nL as required.50nl per well of 1 mM VHL NanoBRET Tracer in DMSO (NanoBRETTM Tracer-PEG2-590 (see structure below)) was transferred into each well using an Echo 555 (ultimately yielding a final concentration of 1uM). HEK 293 RT VHL-NanoLuc stable cells were cultured in DMEM High Glucose with Pyruvate, 10% fetal bovine serum, 2 mg/mL of Geneticin Selective Antibiotic (50 mg/ml) and 2 mM HEPES (1 M). Cells were seeded in Opti-MEM (Life Technologies-11058-021), 1.7 × 10^5 cells/mL, 40 ^l per well into the assay plate, centrifuged at 500 rpm for 30 seconds and incubated for 2 hours. Max Signal control wells consisted of DMSO only treated wells. Minimum Signal control wells contained of 10 uM parental unlabeled VHL antagonist (control compound see structure below). 3X Complete Substrate plus Inhibitor Solution was prepared in Opti-MEM (consists of a 1:166 dilution of NanoBRET Nano-Glo Substrate plus a 1:500 dilution of Extracellular NanoLuc Inhibitor in Opti-MEM), and 20 ul was dispensed into each well of the 384-well plate and centrifuged at 1000 rpm for 1 minute, then incubated for 2 minutes at room temperature. Background Signal control wells were prepared without tracer for background correction steps.[0489] Plates were read using a PerkinElmer Envision Reader (model 2104-0020) equipped with Luminescence option (Mirror: BRET2 Enh (PE Barcode 659), Emission Filter: Omega 610LP (Barcode 504), 2nd Emission Filter: Umbelliferone 460 (Barcode 207), Measurement height: 6.5 mm, Measurement time: 1s). The raw BRET ratio values were calculated by dividing the acceptor emission value (610 nm) by the donor emission value (460nm) for each sample. To correct for background, the BRET ratio in the absence of tracer (average of no-tracer control samples) was subtracted from the BRET ratio of each sample. Raw BRET units were converted to milliBRET units (mBU) by multiplying each raw BRET value by 1,000. The normalized NanoBRET signal was calculated relative to the Max Signal control wells (DMSO treated control wells) and the Minimum Signal control wells. Percentage inhibition was calculated relative to the Minimum Signal control and Maximum Signal control wells. IC50 values were derived by four parameter curve fitting using the Robust method.

Chain of von Hippel-Lindau disease tumor suppressor (P40337 whole entry): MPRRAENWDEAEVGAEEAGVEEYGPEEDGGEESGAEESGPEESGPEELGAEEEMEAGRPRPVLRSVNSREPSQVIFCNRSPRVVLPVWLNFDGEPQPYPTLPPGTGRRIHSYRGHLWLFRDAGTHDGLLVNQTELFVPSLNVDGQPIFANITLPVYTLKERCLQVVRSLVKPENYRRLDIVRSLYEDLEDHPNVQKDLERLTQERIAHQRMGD

SMILES	IC50 [µM]
CNC(=O)[C@@H]1C[C@@H](OC(C)=O)CN1C(=O)[C@H](n1cc(C2CC2)nn1)C(C)(C)C [WO2022104345, Compound 13]	62.8
CNC(=O)[C@@H]1C[C@@H](O)CN1C(=O)[C@H](C(C)C)n1cc(C2(C)CC2)nn1 [WO2022104345, Compound 21]	1.21
CNC(=O)[C@@H]1C[C@@H](O)CN1C(=O)[C@H](C1CCNCC1)n1cc(C2CC2)nn1 [WO2022104345, Example S7]	> 100
CNC(=O)[C@@H]1C[C@@H](O)CN1C(=O)[C@H](C1CCN(C)CC1)n1cc(C2CC2)nn1 [WO2022104345, Example S8]	> 100
CNC(=O)[C@@H]1C[C@@H](O)CN1C(=O)C(=C(C)C)n1cc(C2CC2)nn1 [WO2022104345, Compound 32]	4.75
CNC(=O)[C@@H]1C[C@@H](O)CN1C(=O)[C@H](C(C)C)n1cc(C2CC2)nn1 [WO2022104345, Compound 11]	3
CNC(=O)[C@@H]1C[C@@H](O)CN1C(=O)[C@H](C(C)C)n1cc(-c2cncs2)nn1 [WO2022104345, Compound 41]	0.9
CNC(=O)[C@@H]1C[C@@H](O)CN1C(=O)[C@@H](C(C)C)n1cc(C2CC2)nn1 [WO2022104345, Compound 12]	> 100
